Source: US8030443B2, “Squamous cell carcinoma antigen-derived peptide binding to HLA-A24 molecule” (Kurume University, priority 2005, dated 2011)
Residues, ends and D or L forms follow the SMILES beside them.

Tested on: YES-2 (HLA-A24^+, SCCA^+) esophageal squamous cell carcinoma cells
Assay: 6-h 51Cr-release cytotoxicity assay of peptide-stimulated CTLs
Format: cell-based, human
Text: Cultured cells in wells producing IFN-γ in response to a corresponding peptide were collected and further cultured with IL-2 alone for 10-14 days in order to obtain a sufficiently large number of cells to perform a standard 6-h ^51Cr-release assay. The following tumor cell lines were used as targets; YES-1 (HLA-A24^− and SCCA^+ esophageal squamous cell carcinoma), and YES-2 (HLA -A24^+ and SCCA^+ esophageal squamous cell carcinoma). Phytohemagglutinin (PHA)-stimulated blastoid T cells were also used as a negative control. In some experiments, 20 μg/ml of anti-HLA-class I (W6/32, IgG2a) (BioLegend, Camino Santa Fe, San Diego, Calif., USA), anti-HLA-class II (H-DR-1, IgG2a) (kindly provided by Dr. Yasuji NISHIMURA, KUMAMOTO UNIVERSITY, Japan), anti-CD4 (Nu-Th/i, IgG1) (established at Department of Immunology, Kurume University School of Medicine, Japan), or anti-CD8 (Nu-Ts/c, IgG2a) monoclonal antibody (mAb) (established at Department of Immunology, Kurume University School of Medicine, Japan) were added to the wells at the initiation of the assay. An anti-CD14 (JML-H14, IgG2a) mAb (established at Department of Immunology, Kurume University School of Medicine, Japan) was used as a negative control.

Row | SMILES | Cytotoxicity of peptide-stimulated CTLs/PBMCs (SCC patients (Pts 2, 5, 7, 8), targets YES-2, YES-1, PHA-stimulated T-cell blasts (FIG. 4B)) | Cytotoxicity of peptide-stimulated CTLs against YES-2 cells
1 | CC[C@H](C)[C@H](NC(=O)CNC(=O)[C@H](CC(C)C)NC(=O)[C@H](CC(C)C)NC(=O)[C@H](CCC(N)=O)NC(=O)[C@H](CCC(N)=O)NC(=O)[C@H](CCCNC(=N)N)NC(=O)[C@H](CC(C)C)NC(=O)[C@H](Cc1ccc(O)cc1)NC(=O)[C@@H](N)CCCNC(=N)N)C(=O)O [HIV peptide, RYLRQQLLGI, reference compound] (H-RYLRQQLLGI-OH) | did not show any cytotoxicity | –
2 | CC(C)C[C@H](NC(=O)[C@H](Cc1ccc(O)cc1)NC(=O)[C@H](CCC(=O)O)NC(=O)[C@H](CCC(N)=O)NC(=O)[C@H](CC(C)C)NC(=O)[C@H](Cc1ccccc1)NC(=O)[C@H](CC(C)C)NC(=O)[C@H](Cc1ccc(O)cc1)NC(=O)[C@@H](N)[C@@H](C)O)C(=O)O [SCCA 112, TYLFLQEYL] (H-TYLFLQEYL-OH) | – | exhibited cytotoxicity against YES-2 cells in an HLA class I-restricted manner
3 | CC(C)C[C@H](NC(=O)[C@H](CO)NC(=O)[C@H](C)NC(=O)[C@H](Cc1ccccc1)NC(=O)[C@H](Cc1c[nH]cn1)NC(=O)[C@H](Cc1ccccc1)NC(=O)[C@H](CO)NC(=O)[C@@H](NC(=O)[C@H](Cc1ccc(O)cc1)NC(=O)[C@@H](N)CCC(N)=O)[C@@H](C)O)C(=O)O [SCCA 215, QYTSFHFASL] (H-QYTSFHFASL-OH) | – | exhibited cytotoxicity against YES-2 cells in an HLA class I-restricted manner
